Peptide text beside a SMILES is read from it.
Experiments:
[1] = tested on: endosomal acidification in H1N1-infected MDCK cells; assay type: cell-based, canine
[2] = tested on: H1N1 virus; settings: for 50% inhibitory concentration (IC50) against H1N1: virus, 1 h
[3] = tested on: H1N1 virus; set-up: species or system BALB/c mice; settings: mouse, in vivo
[4] = tested on: H5N1 virus; set-up: species or system BALB/c mice; settings: mouse, in vivo
[5] = tested on: H7N9 virus; set-up: species or system BALB/c mice; settings: mouse, in vivo
[6] = tested on: MDCK cells; settings: 24 h
[7] = tested on: influenza A virus H3N2, H5N1, H7N7 and H7N9; settings: H7N7 and H7N9, 24 h
[8] = tested on: SARS-CoV
[9] = tested on: MERS-CoV
[10] = mouse, in vivo
[11] = in vivo
[12] = synthetic P9, water
[13] = target: H1N1 viral HA (Influenza A virus, UniProt C3W5S1)
Chain of H1N1 viral HA (C3W5S1 entry or part of it, added parts left off): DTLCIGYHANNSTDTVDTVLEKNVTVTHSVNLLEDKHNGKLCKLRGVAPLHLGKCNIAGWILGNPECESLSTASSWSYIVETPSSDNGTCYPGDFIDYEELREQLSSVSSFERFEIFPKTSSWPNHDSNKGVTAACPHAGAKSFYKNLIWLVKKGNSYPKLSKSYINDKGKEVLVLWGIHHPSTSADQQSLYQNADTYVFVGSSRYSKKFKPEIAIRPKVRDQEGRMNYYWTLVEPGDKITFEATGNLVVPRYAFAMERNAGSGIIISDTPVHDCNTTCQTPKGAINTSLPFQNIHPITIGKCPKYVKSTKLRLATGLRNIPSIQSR

[14] = tested on: H1N1 viral NA
[15] = target: MERS-CoV S2 (Middle East respiratory syndrome-related coronavirus, UniProt K9N5Q8)
Chain of MERS-CoV S2 (K9N5Q8 752-1353 limits assumed): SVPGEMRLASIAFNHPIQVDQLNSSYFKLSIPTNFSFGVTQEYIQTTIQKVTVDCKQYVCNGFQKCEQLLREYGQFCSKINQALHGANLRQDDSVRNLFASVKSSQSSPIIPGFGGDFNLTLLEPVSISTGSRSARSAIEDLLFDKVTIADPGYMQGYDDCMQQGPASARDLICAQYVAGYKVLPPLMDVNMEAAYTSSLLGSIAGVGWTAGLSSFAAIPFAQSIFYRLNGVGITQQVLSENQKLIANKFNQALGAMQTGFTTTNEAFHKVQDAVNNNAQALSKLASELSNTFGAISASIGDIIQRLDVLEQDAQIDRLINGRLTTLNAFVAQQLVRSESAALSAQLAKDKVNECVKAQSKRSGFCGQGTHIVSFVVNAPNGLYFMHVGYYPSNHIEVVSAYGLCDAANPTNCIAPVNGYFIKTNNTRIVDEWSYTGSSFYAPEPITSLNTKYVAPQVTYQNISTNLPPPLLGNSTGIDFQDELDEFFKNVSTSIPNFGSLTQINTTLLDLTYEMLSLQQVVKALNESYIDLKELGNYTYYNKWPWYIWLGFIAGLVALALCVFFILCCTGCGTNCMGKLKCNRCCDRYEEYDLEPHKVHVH

[16] = target: MERS-CoV S1 (Middle East respiratory syndrome-related coronavirus, UniProt K9N5Q8)
Chain of MERS-CoV S1 (K9N5Q8 18-751 limits assumed): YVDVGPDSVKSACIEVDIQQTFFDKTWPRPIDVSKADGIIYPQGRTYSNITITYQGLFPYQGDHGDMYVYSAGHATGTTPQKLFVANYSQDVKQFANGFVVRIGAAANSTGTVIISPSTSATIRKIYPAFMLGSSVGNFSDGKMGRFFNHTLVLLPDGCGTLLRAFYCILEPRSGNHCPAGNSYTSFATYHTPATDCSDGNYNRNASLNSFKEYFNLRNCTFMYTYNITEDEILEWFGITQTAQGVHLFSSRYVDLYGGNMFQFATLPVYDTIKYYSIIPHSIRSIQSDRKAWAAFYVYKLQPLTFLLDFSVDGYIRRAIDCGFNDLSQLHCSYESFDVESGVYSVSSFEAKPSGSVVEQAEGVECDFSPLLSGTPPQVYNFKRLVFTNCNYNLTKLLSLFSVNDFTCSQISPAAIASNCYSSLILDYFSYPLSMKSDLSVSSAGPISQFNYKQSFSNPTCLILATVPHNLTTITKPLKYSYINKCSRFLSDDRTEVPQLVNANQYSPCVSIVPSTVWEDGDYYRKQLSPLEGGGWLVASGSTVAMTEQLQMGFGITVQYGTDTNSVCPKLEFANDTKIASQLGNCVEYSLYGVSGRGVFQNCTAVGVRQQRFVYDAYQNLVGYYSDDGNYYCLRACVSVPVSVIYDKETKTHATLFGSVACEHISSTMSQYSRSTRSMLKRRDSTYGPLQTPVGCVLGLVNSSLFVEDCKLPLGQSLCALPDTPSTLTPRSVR

[17] = tested on: SARS-CoV; settings: in vivo
[18] = tested on: HA-cell membrane fusion in 293FT cells expressing HA; settings: low pH 5.0

## CC[C@H](C)[C@H](NC(=O)[C@H](C)NC(=O)CNC(=O)[C@@H](N)CC(N)=O)C(=O)N[C@@H](CS)C(=O)N[C@@H](Cc1c[nH]c2ccccc12)C(=O)NCC(=O)N1CCC[C@H]1C(=O)N[C@@H](CS)C(=O)N1CCC[C@H]1C(=O)N[C@H](C(=O)N[C@@H](C)C(=O)N[C@@H](Cc1ccccc1)C(=O)N[C@@H](CCCNC(=N)N)C(=O)N[C@@H](CCC(N)=O)C(=O)N[C@H](C(=O)NCC(=O)N[C@@H](CC(N)=O)C(=O)N[C@@H](CS)C(=O)NCC(=O)N[C@@H](Cc1c[nH]cn1)C(=O)N[C@@H](Cc1ccccc1)C(=O)N[C@@H](CCCCN)C(=O)N[C@H](C(=O)N[C@@H](CCCNC(=N)N)C(=O)N[C@@H](CS)C(=O)N[C@@H](CS)C(=O)N[C@@H](CCCCN)C(=O)N[C@H](C(=O)N[C@@H](CCCNC(=N)N)C(=O)N[C@@H](CC(=O)O)C(=O)N[C@@H](CCC(=O)O)C(=O)N[C@@H](CC(=O)O)C(=O)O)[C@@H](C)CC)C(C)C)[C@@H](C)CC)[C@@H](C)O [Peptide P9-aci-1] (H-NGAICWGPCPTAFRQIGNCGHFKVRCCKIRDED-OH)
[1]
  pH lowering (acidification) in endosomes: unaffected
[2]
  50% inhibitory concentration (IC50) against H1N1: > 100 mg/L

## Cl.N [NH4Cl, ammonium chloride, reference compound]
[1]
  pH lowering (acidification) in endosomes: acidification was abolished

## CC[C@H](C)[C@H](NC(=O)[C@H](C)NC(=O)CNC(=O)[C@@H](N)CC(N)=O)C(=O)N[C@@H](CS)C(=O)N[C@@H](Cc1c[nH]c2ccccc12)C(=O)NCC(=O)N1CCC[C@H]1C(=O)N[C@@H](CS)C(=O)N1CCC[C@H]1C(=O)N[C@H](C(=O)N[C@@H](C)C(=O)N[C@@H](Cc1ccccc1)C(=O)N[C@@H](CCCNC(=N)N)C(=O)N[C@@H](CCC(N)=O)C(=O)N[C@H](C(=O)NCC(=O)N[C@@H](CC(N)=O)C(=O)N[C@@H](CS)C(=O)NCC(=O)N[C@@H](Cc1c[nH]cn1)C(=O)N[C@@H](Cc1ccccc1)C(=O)N[C@@H](CCCCN)C(=O)N[C@H](C(=O)N[C@@H](CCCNC(=N)N)C(=O)N[C@@H](CS)C(=O)N[C@@H](CS)C(=O)N[C@@H](CCCCN)C(=O)N[C@H](C(=O)N[C@@H](CCCNC(=N)N)C(=O)O)[C@@H](C)CC)C(C)C)[C@@H](C)CC)[C@@H](C)O [Peptide P9] (H-NGAICWGPCPTAFRQIGNCGHFKVRCCKIR-OH)
[3]
  mice protected from lethal challenge, P9 given 2 h before challenge: 60%
  mice protected from lethal challenge, P9 given 4 h before challenge: 30%
  mice protected from lethal challenge, P9 given 8 h before challenge: 20%
  survival rate, prophylactic: 100%
  survival rate, therapeutic: 60%
  viral loads in lung tissues: significantly lower
[4]
  mice protected from lethal H5N1 challenge, prophylaxis: 44%
  mice protected from lethal H5N1 challenge, therapy: 50%
[5]
  mice protected from lethal H7N9 challenge, prophylaxis: 50%
  mice protected from lethal H7N9 challenge, therapy: 50%
[1]
  pH lowering (acidification) in endosomes: acidification was abolished
[2]
  antiviral activity among short peptides: strongest antiviral activity
  50% inhibitory concentration (IC50) against H1N1: 1.2 mg/L
[6]
  50% toxic concentration (TC50): 380 mg/L
[7]
  IC50s against H3N2, H5N1, H7N7 and H7N9: 1.5 to 4.8 mg/L
[8]
  inhibition of SARS-CoV infection: more than 95%
[8]; 24 h
  IC50 against SARS-CoV: about 5 μg/ml
[9]
  inhibition of MERS-CoV infection: more than 95%
[9]; 24 h
  IC50 against MERS-CoV: about 5 μg/ml
[10]
  food consumption or sickness: no obvious reduction of food consumption or sickness
[10]; 50 mg/kg
  body weight loss, i.n.: less than 10%
[10]; ip, 500 mg/kg
  body weight loss, i.p.: less than 10%
[11]
  P9 signal on surface of mouse bronchial tubes after administration: almost undetectable level
[12]
  solubility and stability in water: highly soluble and stable in water
[13]
  binding to HA: bound to HA
[14]
  binding to NA: not NA
[15]
  binding to S2 of MERS-CoV: bound to S2
[16]
  binding to S1 of MERS-CoV: not S1
[17]
  virus infection in mouse lungs: significantly inhibited
[18]
  HA-cell membrane fusion (polykaryon formation): did not directly inhibit

## CC(=O)N[C@H]1[C@H]([C@H](O)[C@H](O)CO)OC(C(=O)O)=C[C@@H]1N=C(N)N [Zanamivir, reference compound]
[3]
  survival rate, therapeutic: 80%
[4]
  mice protected from lethal H5N1 challenge, prophylaxis: 50%
  mice protected from lethal H5N1 challenge, therapy: 60%
[5]
  mice protected from lethal H7N9 challenge, prophylaxis: 60%
  mice protected from lethal H7N9 challenge, therapy: 70%

## CO/C1=C\C(C)=C\[C@@H](C)[C@@H](O)[C@@H](C)C/C(C)=C/C=C/[C@H](OC)[C@@H]([C@@H](C)[C@@H](O)[C@H](C)[C@@]2(O)C[C@@H](O)[C@H](C)[C@@H](C(C)C)O2)OC1=O [Bafilomycin A1, reference compound]
[1]
  pH lowering (acidification) in endosomes: acidification was abolished

Reference: article PMC4766503, “A novel peptide with potent and broad-spectrum antiviral activities against multiple respiratory viruses” (Scientific Reports, 2016)
